Measured values as given in paper PMC5779043 (Journal of the American Heart Association: Cardiovascular …, 2017).

How the values were obtained:
[1] = system: intraluminal occlusion of the middle cerebral artery (MCA); assay: Grip test after MCA occlusion; type: in vivo, Sprague-Dawley rats; details: 7 and 14 days after ischemia, 12 nmol/kg i.v. before MCA occlusion, n=8/group
[2] = system: intracerebral hemorrhage and traumatic brain injury; details: intravenous administration; cited from earlier work

For human BNP [hBNP], the “grip test vs control” value [1] was “no differences were observed”.

In the case of nesiritide, the cerebral blood flow [2] is given as “improved the cerebral blood flow”, the functional outcome [2] is given as “better functional outcome” and the “inflammation and brain injury” value [2] is given as “reduced the inflammation and brain injury”.
